No end group written: not given here.
Experiments:
SERCA2a = experiment: Aorta ex vivo organ culture, SERCA2a western blotting; format: cell-based; conditions: ex vivo culture of rat thoracic aorta, injury by scratching
Method: A rat thoracic aorta was harvested and incubated in RPMI-1640 medium containing 20 mM HEPES, 2 mM L-glutamine, 100 IU/mL penicillin, and 100 μg/mL streptomycin. The adventitia was removed, and the aorta was cut longitudinally and fixed onto a resin. To investigate the degradation of SERCA2a, tissue fragments were cultured for 7-10 days in RPMI-1640 medium containing 20% (v/v) FCS. The medium was replaced every 48 hours.
Vascular smooth muscle cells (VSMCs) were homogenized in a minimal volume of 50 mM Tris-HCl, pH 7.4, supplemented with a broad-spectrum protease inhibitor cocktail (Calbiochem). The proteins were separated by SDS-PAGE and then transferred to polyvinylidene fluoride membranes (Schleicher & Schuell). After blocking with 5% (w/v) non-fat milk for 1 hour and washing with TBST, the membranes were incubated with antibodies against SERCA2a, SERCA2b (21st century biochemical), PCNA (abcam), GAPDH (Sigma-Aldrich), phospho-eNOS, eNOS, phospho-eIF2α, eIF2α (cell signaling), Vimentin, α-SMA, BMPR2 (Santa cruz), phospho-Akt, Akt (cell signaling), phospho-phospholamban (Merck), and Phospholamban (cell signaling). The membranes were then incubated with horseradish peroxidase-conjugated secondary antibodies (Jackson ImmunoResearch, West Grove, Pa., USA) and developed using a chemiluminescent substrate (Dogen). The blots were scanned and quantified using LAS software.

cytosolic Ca^2+ level [1] = experiment: Intracellular Ca2+ measurement in HCSMCs; format: cell-based, human; conditions: HCSMCs pretreated 1 hour with 3 μM ψPLB-SE or 15 μM MDL28170, then 50 μM A23187 2 hours
Method: (§1) FIGS. 4a, 4b, 4c and 4d. (4a-4c) HCSMCs were pretreated with 3 μM ψPLB-SE and 15 μM MDL28170 for 1 hour, and then treated with 50 μM A23187 for 2 hours. (4a) Immunostaining was performed with antibodies against SERCA2a and SERCA2b (green). Nuclei were stained with Hoechst (blue). Representative merged images are shown. Scale bar, 50 μm. (4b) Western blot analysis was performed with cell extracts. Data are expressed as the means±SD (n=3-4; *, P<0.05). (4c) Baseline Ca^2+ concentration was measured by lonOptix calcium imaging system. (4d) RASMC were treated with ψPLB-SE or control peptide under the same conditions as described for FIG. 1B. The baseline Ca^2+ concentration was measured by lonOptix calcium imaging system (*, P<0.05).
(§2) The intracellular Ca^2+ level was measured in VSMCs by loading cells with 0.5 μM Fura2-AM (Molecular Probes, Eugene Oreg., USA), a Ca^2+-sensitive indicator, for 15 minutes at 37. The fluorescence was recorded using the lonOptix calcium imaging system. VSMCs were stimulated by the exposure to light emitted by a 75 W halogen lamp through either a 340 nm or 380 nm filter. The fluorescent emissions were detected between 480 nm and 520 nm by a photomultiplier tube after an initial illumination at 340 nm for 0.5 second and then at 380 nm during recording. The 340 nm excitation scan was repeated at the end of the protocol, and qualitative changes in the intracellular Ca^2+ level were inferred from the ratio of the Fura2 fluorescent intensity at both wavelengths.

cytosolic Ca^2+ level [2] = experiment: Intracellular Ca2+ measurement in RASMCs; format: cell-based, rat; conditions: 10% FBS, 3 μM peptide
Method: as §1
as §2, with “The 340 nm excitation scan was repeated at the end of the protocol, and qualitative changes in the intracellular Ca^2+ level were inferred from the ratio of the Fura2 fluorescent intensity at both wavelengths.” left out

[3] = test system: interaction of PP1 and Akt; experiment: PP1 immunoprecipitation of pulmonary tissue lysate; format: binding; conditions: ψPLB-SE added upon the precipitation
Method: FIGS. 16a, 16b and 16c. (16a-16b) PAECs were treated with 3 μM ψPLB-SE for 1 hour, and protein expression was quantitatively analyzed through western blotting using antibodies against Phospho-eNOS (ser1177), total eNOS, phospho-Akt (Ser473, Thr308), total Akt, and GAPDH. (16c) The pulmonary tissue lysate was subjected to immunoprecipitation using PP1 antibody to investigate the interactions of PP1 with eNOS and Akt depending on the presence or absence of the treatment with ψPLB-SE using respective antibodies therefor.
In order to intensively investigate the interactions of PP1 with eNOS and Akt, the pulmonary tissue lysate was subjected to immunoprecipitation using an antibody against PP1, and the effects of ψPLB-SE on the interactions were investigated by adding ψPLB-SE upon the precipitation. […] The activation of eNOS through the inhibition of the interaction between PP1 and Akt was supplemented through the experiments on the inhibition of the high-order kinase of Akt. The phosphorylation increases of Akt and eNOS due to the inhibition of dephosphorylation were investigated by offsetting the phosphorylation conditions of Akt through the treatment with LY294002, which is an inhibitor of phosphoinositide-3-kinase (PI3K), a known high-order kinase of Akt, at a concentration of 50 μM, followed by ψPLB-SE treatment. […]

[4] = test system: pulmonary arterial smooth muscle cells (PASMCs); experiment: PASMC proliferation (PCNA western blotting, cell proliferation assay); format: cell-based; conditions: synthetic phenotype induction
Method: FIGS. 19a and 19b. […] (19a) Protein expression was quantitatively analyzed through western blotting using antibodies against PCNA and GAPDH 12 and 24 hours after the treatment. (19b) Cell proliferation assay was performed using EZ-CyTox cell viability assay kit.
The rat aortic smooth muscle cells (RASMCs) were isolated from the medial layer of the thoracic aorta derived from male Sprague-Dawley rats (body weight, 180-200 g) by an enzymatic reaction with collagenase (50 U/mL, Worthington) and pancreatic elastase (0.25 mg/mL, Sigma-Aldrich) for 4 hours at 37. The cells were collected and resuspended in DMEM containing 20% (v/v) fetal bovine serum. The resuspension was then plated on collagen I (Sigma-Aldrich)-coated glass coverslips and incubated at 37 in an atmosphere of 5% (v/v) CO2 and 95% (v/v) air. Human coronary smooth muscle cells (HCSMCs), pulmonary arterial endothelial cells (PAECs), and pulmonary arterial smooth muscle cells (PASMCs) were purchased from Lonza and cultured in EBM or SmBM (Lonza) supplemented with 0.5 mg/mL hEGF, […], 1 mg/mL hFGF, […] gentamicin/amphotericin-B, and 5% fetal bovine serum. […]
Vascular smooth muscle cells (VSMCs) were homogenized in a minimal volume of 50 mM Tris-HCl, pH 7.4, supplemented with a broad-spectrum protease inhibitor cocktail (Calbiochem). […] The blots were scanned and quantified using LAS software.

## RAETIEMPQ (not fully specified) [ψPLB-SE, 9-mer PP1 decoy peptide mimicking phosphorylated PLB; conjugated via GGG linker to cell penetrating peptide dNP2 or TAT]
SERCA2a
  injury-dependent reduction of SERCA2a in VSMCs: completely inhibited
Cytosolic Ca^2+ level [1]
  elevation of the cytosolic Ca^2+ level by A23187: normalized
Cytosolic Ca^2+ level [2]
  cytosolic Ca^2+ level elevated under synthetic conditions: decreased
[3]
  interaction of Akt with PP1 (immunoprecipitation): attenuated
[4]
  cell proliferation (cell proliferation assay): inhibiting cell proliferation
  expression of PCNA: attenuated

— US11426441B2, “Composition comprising protein phosphatase 1 inhibitory peptide for treating vascular diseases” (BethphaGen Inc., priority 2016, dated 2022)
